From patent publication US11859248B2, “Nucleic acid modification and identification method” (IMBA—INSTITUT FÜR MOLEKULARE BIOTECHNOLOGIE GMBH, priority 2017, dated 2024)
Like-named read-outs stand apart in the source and are kept apart here.

Experiments:
mES cells = test: Cell viability assay (CellTiter-Glo) of mES cells cultured with s^4U; format: cell-based, mouse; settings: for EC50: Mus musculus, read-out: EC50 of compromised cell viability
Experimental: 5000 mES cells were seeded per 96 well the day before the experiment. Medium containing different concentrations of s^4U (as indicated) was added to the cells for 12 h or 24 h. Cell viability was assessed by CellTiter-Glo® Luminescent Cell Viability Assay (Promega) according to the instructions of the manufacturer. Luminescent signal was measured on Synergy using Gen5 Software (v2.09.1).
We tested the ability of mouse embryonic stem cells to tolerate s^4U metabolic RNA-labeling after 12 h or 24 h at varying s^4U concentrations (FIG. 6A). […] Under these conditions, we detected a steady increase in s^4U-incorporation in total RNA preparation 3 h, 6 h, 12 h, and 24 h post labeling, as well as a steady decrease 3 h, 6 h, 12 h, and 24 h after uridine chase (FIG. 6B). As expected, the incorporation follows a single exponential kinetics, with a maximum average incorporation of 1.78% s^4U, corresponding to one s^4U incorporation in every 56 uridines in total RNA (FIG. 6C). These experiments establish s^4U-labeling conditions in mES cells, which can be employed to measure RNA biogenesis and turnover rates under unperturbed conditions.

Drosophila S2 cells [1] = test: HPLC analysis of s^4U-incorporation into total RNA of Drosophila S2 cells; format: cell-based, Drosophila melanogaster; settings: 500 μM s^4U, 24 h
Experimental: Analysis of s^4U- or s^6G-incorporation into total RNA following metabolic labeling was performed as previously described by Spitzer et al. (Meth Enzymol. 539, 113-161 (2014)).
Upon generating libraries from size-selected total RNA of Drosophila S2 cells after s^4U metabolic labeling for 24 hours, we observed a strong accumulation of T>C conversions when compared to libraries prepared from unlabeled cells, as exemplified for the miR-184 locus, which gives rise to an abundantly expressed microRNA, miR-184-3p, and its less abundant miR*, miR-184-5p (FIG. 12A). In order to confirm this observation at the genomic scale, we aligned reads to annotated microRNA loci in the Drosophila genome and inspected the frequency of any given mutation normalized to overall T-content per miRNA (FIG. 12B). In the absence of s^4U metabolic labeling, we observed a median mutation rate of less than 0.1% for any given mutation, a rate that is consistent with Illumina-reported sequencing error rates. (Note, that iodoacetamide treatment of unlabeled total RNA had no detectable impact on small RNA abundance and mutation rate, as determined by high-throughput sequencing. See FIG. 19). […]

Drosophila S2 cells [2] = test: Small RNA sequencing of Drosophila S2 cells after s^4U metabolic labeling; format: cell-based, Drosophila melanogaster
Experimental: Upon generating libraries from size-selected total RNA of Drosophila S2 cells after s^4U metabolic labeling for 24 hours, we observed a strong accumulation of T>C conversions when compared to libraries prepared from unlabeled cells, as exemplified for the miR-184 locus, which gives rise to an abundantly expressed microRNA, miR-184-3p, and its less abundant miR*, miR-184-5p (FIG. 12A). In order to confirm this observation at the genomic scale, we aligned reads to annotated microRNA loci in the Drosophila genome and inspected the frequency of any given mutation normalized to overall T-content per miRNA (FIG. 12B). In the absence of s^4U metabolic labeling, we observed a median mutation rate of less than 0.1% for any given mutation, a rate that is consistent with Illumina-reported sequencing error rates. (Note, that iodoacetamide treatment of unlabeled total RNA had no detectable impact on small RNA abundance and mutation rate, as determined by high-throughput sequencing. See FIG. 19). After 24 h of s^4U metabolic labeling, we observed a statistically significant (p<10^−4, Mann-Whitney test), 74-fold increase in T>C mutation rates, while all other mutations remained below expected sequencing error rates (FIG. 12B).

[3] = test system: reverse transcriptases (Superscript II, Superscript III, Quant-seq RT); test: Reverse transcription of synthetic thiol-nucleotide-containing RNA followed by high-throughput sequencing; format: biochemical; settings: after iodoacetamide-treatment
Experimental: Primer extension assays were essentially performed as described previously by Nilsen et al. (Cold Spring Harb Protoc. 2013, 1182-1185). Briefly, template RNA oligonucleotides (5L-let-7-3L or 5L-let-7-s^4Up9-3L; Dharmacon; see Table for sequences) were deprotected according to the instructions of the manufacturer and purified by denaturing polyacrylamide gel-elution. 100 μM purified RNA oligonucleotides were treated with 10 mM iodoacetamide (+IAA) or EtOH (−IAA) in standard reaction conditions (50% DMSO, 50 mM sodiumphosphate buffer, pH 8) for 15 min at 50° C. The reaction was stopped by addition of 20 mM DTT, followed by ethanol precipitation. RT primer (see Table for sequence) was 5′ radiolabeled using γ-^32P-ATP (Perkin-Elmer) and T4-polynucleotide kinase (NEB), followed by denaturing polyacrylamide gel-purification. 640 nM γ-^32P-RT primer was annealed to 400 nM 5L-let-7-3L or 5L-let-7-s^4Up9-3L in 2× annealing buffer (500 mM KCl, 50 mM Tris pH 8.3) in a PCR machine (3 min 95° C., 30 sec 85° C. Ramp 0.5° C./s, 5 min 25° C. Ramp 0.1° C./s). Reverse transcription was performed using Superscript II (Invitrogen), Superscript III (Invitrogen), or Quant-seq RT (Lexogen) as recommended by the manufacturer. For dideoxynucleotide reactions, a final concentration of 500 μM ddNTP (as indicated) was added to RT reactions. Upon completion, RT reactions were resuspended in formamide loading buffer (Gel loading buffer II, Thermo Fisher Scientific) and subjected to 12.5% denaturing polyacrylamide gel electrophoresis. Gels were dried, exposed to storage phosphor screen (PerkinElmer), imaged on a Typhoon TRIO variable mode imager (Amersham Biosciences), and quantified using ImageQuant TL v7.0 (GE Healthcare). […]
For sequencing analysis of synthetic RNA samples (FIG. 5) barcoded libraries were demultiplexed using Picard Tools BamIndexDecoder v1.13 allowing 0 mismatches in the barcode. […] Remaining aligned reads were converted to pileup format. […] Output table was analyzed and plotted in Excel v15.22 (Microsoft) and Prism v7.0a (GraphPad). […]

SMILES: O=c1[nH]c(=S)ccn1[C@@H]1O[C@H](CO)[C@@H](O)[C@H]1O [s^4U, 4-thiouridine]
- effect on cell viability (mES cells; 100 μM s^4U): did not severely affect cell viability
- EC50 (mES cells; 12 h labeling): 3100 µM
- EC50 (mES cells; 24 h labeling): 380 µM
- labeling efficiency in total RNA (Drosophila S2 cells [1]): 2.3%
- median s^4U-incorporation in miRNAs (Drosophila S2 cells [2]; 500 μM s^4U, 24 h labeling): 2.22%
- increase in T>C mutation rates (Drosophila S2 cells [2]; 24 h labeling vs unlabeled): 74 fold
- increase in T to C conversion [3]: 8.5 fold
- mutation rate (T to C) ([3]; all tested RTs): more than 0.94
